From patent US12667087B2, “Methods of treatment with aminolevulinic acid synthase 2 (ALAS2) modulators” (Agios Pharmaceuticals, Inc., priority 2019, dated 2026)

These molecules were tested against T1, wild type ALAS2 (Homo sapiens, UniProt P22557) (assay: General IC50 assay, version 1 (5 ug/mL ALAS2), ALA by mass spectrometry). Settings: version 1 assay: 5 ug/mL ALAS2, 0 uM PLP, 1 h reaction.
T1 construct: MBP (TEV-cleavable) (C, cleaved yes); made in house; host or cells: E. coli
T1 sequence (P22557 79-587): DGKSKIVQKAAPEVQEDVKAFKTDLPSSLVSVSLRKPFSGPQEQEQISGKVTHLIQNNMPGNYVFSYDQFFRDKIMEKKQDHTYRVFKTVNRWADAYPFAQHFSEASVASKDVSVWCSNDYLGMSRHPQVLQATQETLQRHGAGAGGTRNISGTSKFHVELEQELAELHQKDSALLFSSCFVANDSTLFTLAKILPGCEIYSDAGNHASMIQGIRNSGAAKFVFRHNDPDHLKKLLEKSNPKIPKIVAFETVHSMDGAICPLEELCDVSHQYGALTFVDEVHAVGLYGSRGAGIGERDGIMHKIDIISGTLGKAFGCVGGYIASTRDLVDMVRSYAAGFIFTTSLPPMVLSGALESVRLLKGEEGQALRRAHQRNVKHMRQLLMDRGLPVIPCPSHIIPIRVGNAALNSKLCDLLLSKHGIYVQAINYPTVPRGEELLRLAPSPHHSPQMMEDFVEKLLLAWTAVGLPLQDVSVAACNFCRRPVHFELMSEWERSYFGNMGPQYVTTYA
Type: biochemical
Procedure: (§1) The exemplified compounds in Table I were tested in vitro against the wild type ALAS2. As described in Example 38, two concentrations of ALAS2 were used: 5 ug/mL ALAS2 (for the version I assay) and 2 ug/mL (for the version 2 assay). “A” refers to an IC50 less than 10.0 μM; “B” refers to an IC50 from 10.0 μM to 50.0 μM; and “C” refers to an AC50 greater than 50.0 μM.
(§2) ALAS2 sequence (see FIG. 8) (residues 79-587) was expressed in E. coli as a TEV cleavable C-terminally MBP tagged construct. Purification steps included an amylose column, followed by MBP tag cleavage and passage through a Ni-NTA column to remove cleaved MBP. ALAS2 was further purified and exchanged into storage buffer (50 mM Tris, 500 mM NaCl, 1 mM DTT, 10 μM PLP, pH 8.0) by size exclusion through a Superdex 200 column and stored at −80° C.
(§3) Preparation of stock solutions: All solutions were prepared by standard methods with the exception of glycine and succinyl CoA. A 1 M solution of glycine was prepared and the pH adjusted to 8.0 by addition of […]. A 1 mM solution of succinyl CoA was prepared in 20 mM phosphoric acid, pH 2.0 to ensure its stability to hydrolysis.
(§4) Routine compound testing for IC50 measurements: Assays were carried out in 96-well V-bottom polypropylene plates (Greiner-Bio cat. no. 651201) at room temperature. Test compound dilution series and DMSO blanks (1 μL) were dispensed into the 96-well plates. A solution of 1.1× assay mix was prepared to contain, in the final 1× assay conditions: 5 μg/mL ALAS2 (for the version 1 assay) or 2 ug/mL (for the version 2 assay), 20 mM sodium phosphate pH 8.0, 3.5 mM glycine, 1 mM MgCl2, 30 mM NaCl, 0.03% BSA, 1 mM EDTA. Assay mix (45 μL) was added to each well, and compound and assay mix were pre-incubated for 1 h at room temperature. Assays were then initiated by addition of 5 μL 1 mM succinyl CoA to each well to give a final concentration of 100 μM. Reactions proceeded for 1 h (version 1 assay) or 2 h (version 2 assay) at room temperature, then were quenched by addition of 200 μL acetonitrile containing 1% formic acid and 0.2 μg/mL ^13C, ^15N aminolevulinic acid (ALA) as an internal standard. The plates were centrifuged at 4° C. for 1 min at 3500 rpm, then 200 μL of supernatant was transferred to a fresh 96-well plate for detection of ALA by high throughput mass spectrometry.
(§5) Measurement of ALA concentration by high throughput mass spectrometry: ALA was monitored in positive mode on a Sciex QTRAP 6500 connected to a Shimadzu 20AD LC using the conditions outlined in the table below. Samples were transferred from the assay plate and loaded onto a ZIC HILIC Trap column (Optimize Technologies, 4 μL, 10 μM) at a flow rate of 1.2 mL/min in 99% acetonitrile, 1% ddH2O containing 0.5% formic acid to remove nonvolatile components with a 6 s desalt cycle. Analytes were eluted with 95% acetonitrile, 5% ddH2O containing 0.5% formic acid in 12 s elution cycles. Concentrations of ALA in each sample were measured by comparison to an authentic standard curve, and IC50s were determined by fitting to the log(compound) vs. response equation Y=bottom+(top−bottom)/(1+10^((log IC50-X)*HillSlope)).

Row | Structure (SMILES) | IC50 (uM) ALAS2 v1; 0 uM PLP
1 | CC(C)N(N)c1nnn[nH]1 [Compound 62] | No Fit
2 | CN(N)c1snnc1-c1ccccc1 [Compound 16] | No Fit

Same assay, conditions: version 1 assay: 5 ug/mL ALAS2, 0 uM PLP, 1 h reaction; read-out: IC50 (uM) ALAS2 v1; 0 uM PLP

Row | IC50 [µM] | Structure (SMILES)
3 | < 10 | CN(N)c1n[nH]c(=O)[nH]1 [Compound 43]
4 | > 50 | COCc1cnc(N(N)C(=O)C(F)(F)F)s1 [Compound 51]
5 | > 50 | NNc1nc(-c2ccccc2)cs1 [Compound 26]
6 | 10 to 50 | NNc1cc(-c2ccccc2)[nH]n1 [Compound 9]
7 | > 50 | NNc1nc(-c2ccc(N)cc2)cs1 [Compound 17]
8 | > 50 | NNc1nc(C(F)(F)F)cs1 [Compound 23]
9 | < 10 | NNc1nnc(-c2ccccn2)s1 [Compound 22]
10 | > 50 | NNc1nnco1 [Compound 47]
11 | < 10 | Cc1ccccc1-c1nnc(NN)[nH]1 [Compound 11]
12 | > 50 | NNc1nnc(C2CC2)s1 [Compound 25]
13 | < 10 | NNc1ccn(CC(=O)O)n1 [Compound 35]
14 | > 50 | Cc1nc(C#N)c(NN)o1 [Compound 52]
15 | 10 to 50 | NNc1nc(N2CCOCC2)n[nH]1 [Compound 14]
16 | < 10 | Cc1cnc(NN)s1 [Compound 40]
17 | > 50 | NNc1ncc(C(=O)O)s1 [Compound 49]
18 | 10 to 50 | NNc1ccn(CC(F)F)n1 [Compound 33]
19 | 10 to 50 | NNc1nc(-c2ccccn2)no1 [Compound 6]
20 | 10 to 50 | NNc1nc(CO)cs1 [Compound 53]
21 | < 10 | CN(N)c1noc(=O)[nH]1 [Compound 45]
22 | < 10 | NNc1nnc(C(F)(F)F)[nH]1 [Compound 44]
23 | < 10 | NNc1n[nH]nc1C(F)(F)F [Compound 39]
24 | 10 to 50 | NNc1ccn(-c2ccccc2)n1 [Compound 10]
25 | 10 to 50 | COc1ccc(-c2nnc(NN)s2)cc1 [Compound 24]
26 | < 10 | CCOC(=O)c1[nH]cnc1NN [Compound 46]
27 | < 10 | CCN(N)c1noc(=O)[nH]1 [Compound 38]
28 | > 50 | N#Cc1ncoc1NN [Compound 59]
29 | < 10 | NNc1nnc(C(F)(F)F)s1 [Compound 29]

Row | IC50 [µM] | Structure (SMILES)
30 | 10 to 50 | Cc1nc(NN)sc1C(=O)O [Compound 54]
31 | < 10 | NNc1nc(-c2ccccc2)no1 [Compound 21]
32 | 10 to 50 | CCOC(=O)c1sc(NN)nc1C [Compound 57]
33 | 10 to 50 | N#Cc1cnc(NN)s1 [Compound 48]
34 | > 50 | NNc1nnc(C2CCC2)[nH]1 [Compound 12]
35 | > 50 | Cc1csc(NN)n1 [Compound 42]
36 | 10 to 50 | NNc1nc(-c2ccc(F)cc2)no1 [Compound 8]
37 | 10 to 50 | NNc1cc(-c2ccncc2)[nH]n1 [Compound 7]
38 | > 50 | NNc1ccn(CC(F)(F)F)n1 [Compound 31]
39 | < 10 | NNc1nnc(-c2ccccc2)s1 [Compound 27]
40 | < 10 | CC(C)n1ccc(NN)n1 [Compound 32]
41 | > 50 | NNc1nnnn1-c1ccccc1 [Compound 15]
42 | < 10 | NNc1nnc(-c2ccccc2)[nH]1 [Compound 34]
43 | < 10 | NNc1nc(-c2ccncc2)no1 [Compound 20]
44 | > 50 | NNc1nc(-c2ccco2)cs1 [Compound 18]
45 | > 50 | Cn1cnnc1NN [Compound 58]
46 | > 50 | CN(N)c1nnnn1Cc1ccccc1 [Compound 65]
47 | 10 to 50 | CCCc1nnc(NN)[nH]1 [Compound 13]
48 | 10 to 50 | CN(N)c1n[nH]nc1C(F)(F)F [Compound 37]
49 | < 10 | NNc1nc(-c2cccnc2)no1 [Compound 19]
50 | > 50 | NNc1nnc(O)[nH]1 [Compound 50]
51 | 10 to 50 | NNc1cc(C(F)(F)F)n[nH]1 [Compound 28]
52 | < 10 | CN(N)c1nnc(C(F)(F)F)[nH]1 [Compound 36]
53 | < 10 | NNc1nnc[nH]1 [Compound 66]
54 | > 50 | Cn1c(NN)nnc1-c1ccccc1 [Compound 30]
55 | > 50 | COCc1cnc(NN)s1 [Compound 41]

Row | Structure (SMILES) | IC50 [µM]
56 | CN(N)c1nnn[nH]1 [Compound 64] | < 10
57 | NNc1nnn[nH]1 [Compound 67] | < 10
58 | CCN(N)c1nnn[nH]1 [Compound 63] | > 50
59 | NN(c1nnn[nH]1)C1CC1 [Compound 61] | > 50
60 | NN(CCO)c1nnn[nH]1 [Compound 56] | > 50
61 | CCCN(N)c1nnn[nH]1 [Compound 60] | > 50
62 | Cn1nnnc1NN [Compound 55] | > 50

The molecules below were run against T1, wild type ALAS2 (assay: General IC50 assay, version 2 (2 ug/mL ALAS2), ALA by mass spectrometry). Settings: version 2 assay: 2 ug/mL ALAS2, 0 uM PLP, 2 h reaction, read-out: IC50 (uM) ALAS2 v2.
Type: biochemical
Procedure: as §1, §2, §3, §4, §5

Row | IC50 [µM] | Structure (SMILES)
63 | < 10 | NNc1nc(-c2ccnc3ccccc23)no1 [Compound 1]
64 | 10 to 50 | COc1ccc(-c2noc(NN)n2)cc1 [Compound 5]
65 | > 50 | NNc1nc(-c2cccc(C(F)(F)F)c2)no1 [Compound 3]
66 | < 10 | NNc1nc(-c2ccc3ccccc3c2)no1 [Compound 2]
67 | 10 to 50 | NNc1nc(-c2ccc(C(F)(F)F)cc2)no1 [Compound 4]
